Measurements reported in patent publication US3962282A, “Juvenile hormone mimics” (priority 1974, dated 1976).

Experiments:
wax moth = experiment: topical application to wax moth, fifth larval stage, maturation inhibition; format: in vivo
From the text: (§1) The compounds were applied in acetone solution at concentrations of 10 percent, 1 percent and 0.5 percent. One microliter of the acetone solution was applied to each test specimen. Ten test specimens were employed for each insect at each concentration and compared to ten acetone controls and ten zero controls. Approximately eight to ten days were required before results could be ascertained.
The insect species used in the test were Tenebrio molitor pupae; milkweed bug, fourth nymphal stage; wax moth, fifth larval stage; and Mexican bean beetle, fourth larval stage. At the completion of the test, each specimen was examined for the degree of juvenile and adult characteristics. The milkweed bug, wax moth, and Mexican bean beetle were assigned a numerical rating of 0 to 3 with 0 indicating no effect and 3 indicating the maximum effect or least adult development. Because of differences in morphology the Tenebrio rating scale was 0 to 4. In all cases a rating of 2 or higher means that the insect is incapable of reproduction. The number of specimens in each rating classification are given. In any test were the total of specimens reported is less than 10, those unreported died in some metamorphic stage. Such deaths indicate control, since the dead insects are not capable of reproducing.

Mexican bean beetle = experiment: topical application to Mexican bean beetle, fourth larval stage, maturation inhibition; format: in vivo; details: rating scale 0-3
Procedure, shortened: (§2)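 Compounds applied topically, 1 μL acetone solution at 10%, 1% or 0.5%, to ten specimens per insect per concentration, alongside acetone and untreated controls; scored after about 8–10 days. Juvenile/adult characteristics rated 0–3 (Tenebrio 0–4), ≥2 meaning unable to reproduce; unreported specimens died during metamorphosis.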

milkweed bug = experiment: topical application to milkweed bug, fourth nymphal stage, maturation inhibition; format: in vivo; details: rating scale 0-3
Procedure, shortened: as §2

alfalfa weevil larvae = experiment: topical application to alfalfa weevil larvae; format: in vivo; details: 10 percent solution in acetone, all controls reached normal adulthood
From the text: A number of compounds were applied topically to alfalfa weevil larvae as a 10 percent solution in acetone. Acetone and nontreated controls were also run. Ten larvae were used in each test. The number of normal adults emerging from the larvae was observed. In each case, all the acetone and nontreated controls reached normal adulthood. The number of normal adults from treated larvae are reported below.

Tenebrio molitor pupae = experiment: topical application to Tenebrio molitor pupae, maturation inhibition; format: in vivo
Procedure, shortened: as §2

housefly larvae = experiment: topical application to housefly larvae; format: in vivo, Musca domestica; details: scale 0-2
Procedure: as §1
A number of compounds were tested against housefly larvae by topical application in an acetone solution using the method described above for the primary test against Tenebrio, milkweed bug, wax moth, and Mexican bean bettel. The results with the first compound are reported on a scale of 0 to 3 with 0 indicating a normal adult, 1 indicating an adult with deformed wings, 2 indicating a partially emerged adult, and 3 indicating no evidence of emergence. The results for the other compounds are reported onn a scale of 0 to 2 with 0 indicating a normal adult, 1 indicating a partially emerged adult and 2 indicating no evidence of emergence.

[1] = tested on: Housefly (Musca domestica); experiment: housefly rearing diet test, percent adult emergence; format: in vivo
Procedure: Test compounds were mixed with the rearing diet of houseflys at various levels. The prepared diet was then placed in an 8 oz. drinking cup. Three cups were prepared for each treatment level and three control cups. Housefly eggs (Musca domestica) were placed in each cup and they were maintained at 28°C. for 1 week. Fifty pupae were then removed from each cup and placed in a petri dish. After the control pupae had emerged into adults, the percent emergence in each dish was recorded. The test compounds used were 7,8-epoxy-4-ethyl-8-methyl-1-(3,4-methylenedioxyphenyl)-3-decene, 4,8-dimetyl-1-(3,4-methylenedioxyphenyl)-2,6-nonadiene and 2,6-dichloro-2,6-dimethyl-9-(3,4-methylenedioxyphenyl)nonane.

[2] = 10% in acetone, 1 microliter topical, rating scale 0 (no effect) to 3 (maximum)

COc1ccc(CCC=C(C)CCC=C(C)C)cc1OC [2,6-DIMETHYL-9-(3,4-DIMETHOXYPHENYL)-2,6-NONADIENE]
number of specimens in rating 0 (wax moth; 0.5%, rating scale 0-3): 10 specimens
number of specimens in rating 0 (wax moth; 1%, rating scale 0-3): 10 specimens
number of specimens in rating 0 (wax moth; [2]): 10 specimens
number of specimens in rating 0 (Mexican bean beetle; 0.5%): 10 specimens
number of specimens in rating 0 (Mexican bean beetle; 1%): 10 specimens
number of specimens in rating 1 (Mexican bean beetle; 10%): 3 specimens
number of specimens in rating 0 (milkweed bug; 0.5%): 8 specimens
number of specimens in rating 0 (milkweed bug; 1%): 8 specimens
number of specimens in rating 2 (milkweed bug; 10%): 3 specimens
number of specimens in rating 3 (milkweed bug; 10%): 2 specimens
Number of Adults (normal adults from ten treated larvae) (alfalfa weevil larvae): 5
number of specimens in rating 0 (Tenebrio molitor pupae; 0.5%, rating scale 0-4): 10 specimens
number of specimens in rating 0 (Tenebrio molitor pupae; 1%, rating scale 0-4): 4 specimens
number of specimens in rating 1 (Tenebrio molitor pupae; 1%, rating scale 0-4): 5 specimens
number of specimens in rating 0 (Tenebrio molitor pupae; 10% in acetone, 1 microliter topical, rating scale 0 (no effect) to 4 (maximum)): 2 specimens
number of specimens in rating 1 (Tenebrio molitor pupae; 10%, rating scale 0-4): 5 specimens
number of specimens in rating 2 (Tenebrio molitor pupae; 10%, rating scale 0-4): 3 specimens

CC(C)(Cl)CCCC(C)(Cl)CCCc1ccc2c(c1)OCO2 (stereo not shown) [2,6-dichloro-2,6-dimethyl-9-(3,4-methylenedioxyphenyl)nonane]
number in rating 0 (normal adult) (housefly larvae; 0.5%): 2
number in rating 2 (no evidence of emergence) (housefly larvae; 0.5%): 8
number in rating 0 (normal adult) (housefly larvae; 1%): 1
number in rating 2 (no evidence of emergence) (housefly larvae; 1%): 9
number in rating 2 (no evidence of emergence) (housefly larvae; 10%): 10
number of specimens in rating 0 (wax moth; 0.5%, rating scale 0-3): 10 specimens
number of specimens in rating 0 (wax moth; 1%, rating scale 0-3): 10 specimens
number of specimens in rating 0 (wax moth; [2]): 10 specimens
number of specimens in rating 0 (Mexican bean beetle; 0.5%): 8 specimens
number of specimens in rating 1 (Mexican bean beetle; 0.5%): 2 specimens
number of specimens in rating 0 (Mexican bean beetle; 1%): 5 specimens
number of specimens in rating 1 (Mexican bean beetle; 1%): 3 specimens
number of specimens in rating 2 (Mexican bean beetle; 1%): 2 specimens
number of specimens in rating 1 (Mexican bean beetle; 10%): 1 specimens
number of specimens in rating 2 (Mexican bean beetle; 10%): 4 specimens
number of specimens in rating 3 (Mexican bean beetle; 10%): 5 specimens
number of specimens in rating 3 (milkweed bug; 0.5%): 8 specimens
number of specimens in rating 3 (milkweed bug; 1%): 10 specimens
number of specimens in rating 3 (milkweed bug; 10%): 5 specimens
percent adult emergence, Cup 1 ([1]; 0.1 ppm in diet): 100%
percent adult emergence, Cup 2 ([1]; 0.1 ppm in diet): 100%
percent adult emergence, Cup 3 ([1]; 0.1 ppm in diet): 100%
percent adult emergence, Cup 1 ([1]; 1 ppm in diet): 100%
percent adult emergence, Cup 2 ([1]; 1 ppm in diet): 100%
percent adult emergence, Cup 3 ([1]; 1 ppm in diet): 100%
percent adult emergence, Cup 1 ([1]; 10 ppm in diet): 100%
percent adult emergence, Cup 2 ([1]; 10 ppm in diet): 90%
percent adult emergence, Cup 3 ([1]; 10 ppm in diet): 90%
control ([1]; 100 ppm): 100%
percent adult emergence, Cup 1 ([1]; 100 ppm in diet): 0%
percent adult emergence, Cup 2 ([1]; 100 ppm in diet): 0%
percent adult emergence, Cup 3 ([1]; 100 ppm in diet): 0%
number of specimens in rating 1 (Tenebrio molitor pupae; 0.5%, rating scale 0-4): 2 specimens
number of specimens in rating 2 (Tenebrio molitor pupae; 0.5%, rating scale 0-4): 8 specimens
number of specimens in rating 2 (Tenebrio molitor pupae; 1%, rating scale 0-4): 10 specimens
number of specimens in rating 2 (Tenebrio molitor pupae; 10%, rating scale 0-4): 1 specimens
number of specimens in rating 3 (Tenebrio molitor pupae; 10%, rating scale 0-4): 9 specimens

COc1cccc(CCC=C(C)CCC=C(C)C)c1 [2,6-DIMETHYL-9-(3-METHOXYPHENYL)-2,6-NONADIENE]
number of specimens in rating 0 (wax moth; 0.5%, rating scale 0-3): 10 specimens
number of specimens in rating 0 (wax moth; 1%, rating scale 0-3): 9 specimens
number of specimens in rating 0 (wax moth; [2]): 9 specimens
number of specimens in rating 2 (wax moth; 10%, rating scale 0-3): 1 specimens
number of specimens in rating 0 (Mexican bean beetle; 0.5%): 10 specimens
number of specimens in rating 0 (Mexican bean beetle; 1%): 10 specimens
number of specimens in rating 3 (Mexican bean beetle; 10%): 3 specimens
number of specimens in rating 0 (milkweed bug; 0.5%): 3 specimens
number of specimens in rating 1 (milkweed bug; 0.5%): 3 specimens
number of specimens in rating 2 (milkweed bug; 0.5%): 4 specimens
number of specimens in rating 1 (milkweed bug; 1%): 1 specimens
number of specimens in rating 2 (milkweed bug; 1%): 5 specimens
number of specimens in rating 3 (milkweed bug; 1%): 3 specimens
number of specimens in rating 3 (milkweed bug; 10%): 9 specimens
Number of Adults (normal adults from ten treated larvae) (alfalfa weevil larvae): 6
number of specimens in rating 3 (Tenebrio molitor pupae; 0.5%, rating scale 0-4): 1 specimens
number of specimens in rating 4 (Tenebrio molitor pupae; 0.5%, rating scale 0-4): 9 specimens
number of specimens in rating 4 (Tenebrio molitor pupae; 1%, rating scale 0-4): 10 specimens
number of specimens in rating 4 (Tenebrio molitor pupae; 10%, rating scale 0-4): 10 specimens
